Reference: PMC10108886 (Cancer Research Communications, 2023)
Like-named read-outs stand apart in the source and are kept apart here.

How the values were obtained:
Experiment in all cases: cells
CWR22Rv1(shGFP) = conditions: AR Status=H874Y and V7, growth inhibition with PARP7-inducing ligand, partial maximal effect
Source text: (§1) VCaP cells encode wild-type (WT) AR and the V7 variant, and are used to model castrate resistance owing to amplification of AR. CWR22Rv1 is an informative model for therapy resistance mediated by AR splice variants that lack the ligand-binding domain. PC3-AR is a PC3 derivative engineered to express WT AR, which drives a gene expression profile that overlaps other prostate lines ([18]). PC3 cells are AR negative, resistant to therapies based on androgen deprivation, highly motile, and used to study prostate cancer metastasis. […] It is well established that androgen treatment is growth repressive in some prostate cancer lines. […] A G1 effect of androgen is, however, apparent in VCaP and PC3-AR cells (Supplementary Fig. S1A). […] FICZ is a naturally occurring tryptophan photoproduct, while 10-Chloro-7H-benzimidazo[2,1-a]benz[de]isoquinolin-7-one (10-CI-BBQ; here termed BBQ) is a synthetic molecule. FICZ and BBQ induce AHR target genes through a chaperone-mediated mechanism ([26]). […] In A, D–H, each condition reflects eight biological replicates, error bars show the SD, and ****, P < 0.0001; ***, P < 0.001; **, <0.01. […] The experiments were performed in triplicate, error bars show the SD, and ***, P < 0.001; **, <0.01, *, <0.05; ns, not significant. C, Phase contrast microscopy showing the morphology of cells treated with AHR agonist and RBN2397. […] A similar image for CWR22Rv1 cells with vehicle alone (−) is used in both Fig. 2C and 4C. […] F, RBN2397 dose–response curve of VCaP cells treated with BBQ.

CWR22Rv1(shPARP7) = conditions: AR Status=H874Y and V7, growth inhibition with PARP7-inducing ligand, partial maximal effect
Source text: as §1

DU145 = conditions: Homo sapiens, DU-145, read-out: EC50 of RBN2397 (nM), Ligand* (Conc.)=BBQ (10 nM); AR Status=(-); growth inhibition with PARP7-inducing ligand; partial maximal effect
Source text: as §1

PC3AR(shGFP) = conditions: PC3/AR, AR Status=WT, growth inhibition with PARP7-inducing ligand, partial maximal effect
Source text: as §1

PC3AR(shParp7) = conditions: PC3/AR, AR Status=WT, growth inhibition with PARP7-inducing ligand, partial maximal effect
Source text: as §1

PC3AR = conditions: PC3/AR, read-out: EC50 of RBN2397 (nM), Ligand* (Conc.)=R1881 (0.2 nM); AR Status=WT; growth inhibition with PARP7-inducing ligand; partial maximal effect
Source text: as §1

PC3 = conditions: Homo sapiens, AR Status=(-), growth inhibition with PARP7-inducing ligand, partial maximal effect
Source text: as §1

VCaP = conditions: Homo sapiens, VCaP, AR Status=WT and V7, growth inhibition with PARP7-inducing ligand, partial maximal effect
Source text: as §1

[1] = CWR22Rv1, read-out: EC50 of RBN2397 (nM), Ligand* (Conc.)=BBQ (10 nM)
[2] = CWR22Rv1, read-out: EC50 of RBN2397 (nM), Ligand* (Conc.)=R1881 (2 nM)
[3] = read-out: EC50 of RBN2397 (nM), Ligand* (Conc.)=BBQ (10 nM)
[4] = read-out: EC50 of RBN2397 (nM), Ligand* (Conc.)=R1881 (0.2 nM)

- EC50 (DU145): 5.2 nM
- EC50 (PC3AR(shGFP); [3]): 8.4 nM
- EC50 (PC3AR(shGFP); [4]): 3.4 nM
- EC50 (PC3AR(shParp7); [3]): 5.6 nM
- EC50 (PC3AR(shParp7); [4]): 5.7 nM
- EC50 (PC3AR): 2.4 nM
- EC50 (PC3; PC-3, read-out: EC50 of RBN2397 (nM), Ligand* (Conc.)=BBQ (10 nM)): 10 nM
- EC50 (PC3; PC-3, read-out: EC50 of RBN2397 (nM), Ligand* (Conc.)=R1881 (0.2 nM)): 9.4 nM
- EC50 (VCaP; read-out: EC50 of RBN2397 (nM), Ligand* (Conc.)=BBQ (100 nM)): 34.2 nM
- EC50 (VCaP; read-out: EC50 of RBN2397 (nM), Ligand* (Conc.)=R1881 (2 nM)): 3.4 nM
Compound: C[C@@H](COCCC(=O)N1CCN(c2ncc(C(F)(F)F)cn2)CC1)Nc1cn[nH]c(=O)c1C(F)(F)F [RBN2397]
- EC50 (CWR22Rv1(shGFP); [1]): 0.6 nM
- EC50 (CWR22Rv1(shGFP); [2]): 4.8 nM
- EC50 (CWR22Rv1(shPARP7); [1]): 1.7 nM
- EC50 (CWR22Rv1(shPARP7); [2]): 39.6 nM
